# In the supplement of paper PMC10307832:
# Compound: COc1nc(N)nc2c1ncn2[C@@H]1O[C@H](CO)[C@@H](O)[C@@H]1O [Nelarabine] + Cc1nc(NC(=O)N2CCC[C@H]2C(N)=O)sc1-c1ccnc(C(C)(C)C(F)(F)F)c1 [Alpelisib] (partner 2 µM)
# Assay: relative viability (nuclei count vs DMSO), 5 days (fraction); higher = more cells survive
# Settings: first compound 0.01 µM
# In short: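 Medians of duplicate plates are given as relative viability. That measure is the nuclei count in treated wells divided by the count in vehicle wells. Counts were taken on 4× images of lung cancer cell lines in 1536-well plates, 5 days after pin-tool dosing the day after seeding with one drug alone or a fixed anchor-drug dose plus five library-drug doses (not always all listed) in √10 steps.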
row,Cell Line,relative viability
1,NCI-H1666,0.99
2,NCI-H1734,0.746
3,NCI-H1755,1.13
4,NCI-H1793,0.748
5,NCI-H1915,1.2
6,NCI-H1944,0.817
7,NCI-H1975,0.785
8,NCI-H1993,0.704
9,NCI-H2085,1.06
10,NCI-H2087,1.19
11,NCI-H2126,0.875
12,NCI-H2170,0.944
13,NCI-H2347,1.01
14,NCI-H2405,0.842
15,NCI-H3122,0.898
16,PC-3 [JPC-3],1.14
17,PC-14,0.857
18,RERF-LC-KJ,0.944

# Same assay, conditions: first compound 0.03162 µM
row,Cell Line,relative viability
1,LXF-289,1.05
2,NCI-H23,0.719
3,NCI-H322M,0.792
4,NCI-H358,0.839
5,NCI-H441,0.675
6,NCI-H460,0.411
7,NCI-H596,0.504
8,NCI-H647,0.705
9,NCI-H650,1.08
10,NCI-H727,0.572
11,NCI-H838,0.769
12,NCI-H1355,0.615
13,NCI-H1395,0.987
14,NCI-H1437,0.918
15,NCI-H1651,0.963
16,NCI-H1666,0.917
17,NCI-H1734,0.67

row,Cell Line,relative viability
1,NCI-H1755,0.879
2,NCI-H1793,0.736
3,NCI-H1915,1.05
4,NCI-H1944,0.78
5,NCI-H1975,0.489
6,NCI-H1993,0.736
7,NCI-H2085,0.992
8,NCI-H2087,1.13
9,NCI-H2126,0.81
10,NCI-H2170,0.748
11,NCI-H2347,1.13
12,NCI-H2405,0.794
13,NCI-H3122,0.569
14,PC-3 [JPC-3],0.993
15,PC-14,0.97
16,RERF-LC-KJ,0.889

# Same assay, conditions: first compound 0.1 µM
row,Cell Line,relative viability
1,LXF-289,1.01
2,NCI-H23,0.606
3,NCI-H322M,0.677
4,NCI-H358,0.62
5,NCI-H441,0.704
6,NCI-H460,0.565
7,NCI-H596,0.525
8,NCI-H647,1.12
9,NCI-H650,1
10,NCI-H727,0.632
11,NCI-H838,1.07
12,NCI-H1355,0.813
13,NCI-H1395,1
14,NCI-H1437,0.945
15,NCI-H1651,1.12
16,NCI-H1666,0.957

row,Cell Line,relative viability
1,NCI-H1734,0.709
2,NCI-H1755,0.984
3,NCI-H1793,0.625
4,NCI-H1915,1.11
5,NCI-H1944,0.828
6,NCI-H1975,0.73
7,NCI-H1993,0.756
8,NCI-H2085,0.94
9,NCI-H2087,0.986
10,NCI-H2126,0.779
11,NCI-H2170,0.81
12,NCI-H2347,1.14
13,NCI-H2405,0.74
14,PC-3 [JPC-3],1.06
15,PC-14,1.02
16,RERF-LC-KJ,0.909

# Same assay, conditions: first compound 0.3162 µM
row,Cell Line,relative viability
1,LXF-289,1.11
2,NCI-H23,0.686
3,NCI-H322M,0.772
4,NCI-H358,0.845
5,NCI-H441,0.921
6,NCI-H460,0.66
7,NCI-H596,0.577
8,NCI-H647,1.56
9,NCI-H650,1.14
10,NCI-H727,0.625
11,NCI-H838,1.11
12,NCI-H1355,0.894
13,NCI-H1395,1.34
14,NCI-H1437,1.13
15,NCI-H1651,1.02
16,NCI-H1666,1.05
17,NCI-H1734,0.653

row,Cell Line,relative viability
1,NCI-H1755,1.15
2,NCI-H1793,0.68
3,NCI-H1915,1.07
4,NCI-H1944,0.814
5,NCI-H1975,0.773
6,NCI-H1993,0.712
7,NCI-H2085,1.01
8,NCI-H2087,0.969
9,NCI-H2126,0.744
10,NCI-H2170,0.882
11,NCI-H2347,1.04
12,NCI-H2405,0.647
13,NCI-H3122,0.881
14,PC-3 [JPC-3],1.05
15,PC-14,1.04
16,RERF-LC-KJ,0.861

# Same assay, conditions: first compound 1 µM
row,Cell Line,relative viability
1,LXF-289,1.05
2,NCI-H23,0.693
3,NCI-H322M,0.836
4,NCI-H358,0.857
5,NCI-H441,0.986
6,NCI-H460,0.371
7,NCI-H596,0.504
8,NCI-H647,1.19
9,NCI-H650,1.24
10,NCI-H727,0.571
11,NCI-H838,1.02
12,NCI-H1355,0.801
13,NCI-H1395,0.99
14,NCI-H1437,1.03
15,NCI-H1651,0.855
16,NCI-H1666,0.883
17,NCI-H1734,0.704
18,NCI-H1755,1.08
19,NCI-H1793,0.693
20,NCI-H1915,1.06
21,NCI-H1944,0.79
22,NCI-H1975,0.764
23,NCI-H1993,0.689
